Data reported in ChEMBL document CHEMBL1127522, “[L-Ala3]DPDPE: a new enkephalin analog with a unique opioid receptor activity profile. Further evidence of delta-opioid receptor multiplicity” (J Med Chem, 1994).
Bridge positions count the residues as written; N and C are the ends. Square brackets hold non-standard residues; d marks the D form. Peptide text beside a SMILES is read from it. dPen = CC(C)(S)[C@@H](N)C(=O)O; dAbu = CC[C@@H](N)C(=O)O

Columns and labels:
[1] = target: Mu-type opioid receptor (Rattus norvegicus, UniProt P33535); experiment: Evaluation for the binding affinity by competitive inhibition of [3H]- CTOP binding
[2] = target: Delta-type opioid receptor (Rattus norvegicus, UniProt P33533); experiment: Evaluation for the binding affinity by competitive inhibition of [3H]- p-chloro DPDPE binding
[3] = target: Delta-type opioid receptor (Mus musculus, UniProt P32300); experiment: Inhibitory activity of the electrically induced smooth muscle contraction of mouse vas deferens; format: functional, tissue-based
Chain of Delta-type opioid receptor (Mus musculus, UniProt P32300) (P32300 whole entry): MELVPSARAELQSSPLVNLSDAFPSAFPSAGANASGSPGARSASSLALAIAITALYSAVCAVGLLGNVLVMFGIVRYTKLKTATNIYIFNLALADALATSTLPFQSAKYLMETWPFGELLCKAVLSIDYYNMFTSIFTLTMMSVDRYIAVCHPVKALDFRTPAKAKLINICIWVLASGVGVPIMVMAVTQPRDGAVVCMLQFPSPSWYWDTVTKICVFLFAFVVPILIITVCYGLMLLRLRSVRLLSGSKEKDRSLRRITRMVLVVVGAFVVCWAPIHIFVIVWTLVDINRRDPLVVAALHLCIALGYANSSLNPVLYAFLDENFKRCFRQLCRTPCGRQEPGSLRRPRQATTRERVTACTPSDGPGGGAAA

Chain of Mu-type opioid receptor (P33535 whole entry): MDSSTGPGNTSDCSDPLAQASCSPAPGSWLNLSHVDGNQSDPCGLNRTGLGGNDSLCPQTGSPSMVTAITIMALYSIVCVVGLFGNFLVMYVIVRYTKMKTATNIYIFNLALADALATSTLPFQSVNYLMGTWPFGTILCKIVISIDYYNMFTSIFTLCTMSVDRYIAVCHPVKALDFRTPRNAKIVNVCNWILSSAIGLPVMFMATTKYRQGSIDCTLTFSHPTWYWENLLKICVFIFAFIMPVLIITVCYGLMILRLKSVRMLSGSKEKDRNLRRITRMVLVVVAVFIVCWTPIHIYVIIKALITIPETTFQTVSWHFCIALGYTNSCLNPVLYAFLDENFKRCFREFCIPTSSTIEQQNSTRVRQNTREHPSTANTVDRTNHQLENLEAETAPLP
Chain of Delta-type opioid receptor (Rattus norvegicus, UniProt P33533) (P33533 whole entry): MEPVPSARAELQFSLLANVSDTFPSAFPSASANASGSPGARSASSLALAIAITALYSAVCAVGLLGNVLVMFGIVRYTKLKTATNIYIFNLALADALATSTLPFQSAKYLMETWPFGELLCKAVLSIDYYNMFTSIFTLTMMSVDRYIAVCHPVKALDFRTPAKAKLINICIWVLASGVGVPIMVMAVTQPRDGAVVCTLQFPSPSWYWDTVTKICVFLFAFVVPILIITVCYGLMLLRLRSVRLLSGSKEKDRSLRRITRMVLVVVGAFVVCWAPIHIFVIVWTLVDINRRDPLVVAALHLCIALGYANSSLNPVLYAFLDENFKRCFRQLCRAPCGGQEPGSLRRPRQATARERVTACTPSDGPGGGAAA

Row | SMILES | IC50 [1] | IC50 [2] | IC50 [3]
1 | CC1(C)SSC(C)(C)[C@@H](NC(=O)[C@@H](N)Cc2ccc(O)cc2)C(=O)N[C@@H](CO)C(=O)N[C@@H](Cc2ccccc2)C(=O)N[C@H]1C(=O)O (H-Y[dPen]SF[dPen]-OH; disulfide 2-5) | > 22500 nM |  | 
2 | CC[C@H]1NC(=O)[C@H](NC(=O)[C@@H](N)Cc2ccc(O)cc2)C(C)(C)SSC(C)(C)[C@H](C(=O)O)NC(=O)[C@H](Cc2ccccc2)NC1=O (H-Y[dPen][dAbu]F[dPen]-OH; disulfide 2-5) | > 50000 nM | 2500 nM | 
3 | CC1(C)SSC(C)(C)[C@@H](NC(=O)[C@@H](N)Cc2ccc(O)cc2)C(=O)N[C@H](CO)C(=O)N[C@@H](Cc2ccccc2)C(=O)N[C@H]1C(=O)O (H-Y[dPen][dS]F[dPen]-OH; disulfide 2-5) | > 50000 nM |  | 1300 nM
